PMC5770598, “Small molecules targeted to the microtubule–Hec1 interaction inhibit cancer cell growth through microtubule stabilization” (Oncogene, 2017)

Tests used:
[1] = biological target: T1, MTs (assembled microtubules); test: SPR, steady-state Scatchard plot; type: binding; details: microtubules immobilised on COOH5 chip; pH 7.4, 10 mM Hepes, 150 mM NaCl, 2 mM MgCl2, 0.05% P20, 2% DMSO; error printed as ±0.1
T1 construct: gene alpha-tubulin; assembled microtubules (polymer of alpha/beta-tubulin dimers), 6050 RU amine-coupled to COOH5 chip

tubulin (dimeric) = biological target: T2, tubulin (dimeric); test: SPR, steady-state Scatchard plot; type: binding; details: tubulin dimers immobilised on COOH5 chip; pH 7.4, 10 mM Hepes, 150 mM NaCl, 2 mM MgCl2, 0.05% P20, 2% DMSO
T2 construct: gene alpha-tubulin; unassembled alpha/beta-tubulin dimer, 3900 RU amine-coupled to COOH5 chip

Kd [1]: 0.94 ± 0.13 µM | Kd (tubulin (dimeric)): 1.8 ± 0.4 µM
SMILES: O=C(/C=C/c1cn(CC(O)CN2CCCCC2)c2ccccc12)c1ccc(Br)cc1 (centres unmarked) [SM15]
